Measured values published in paper PMC6073568, “Efficient Lead Finding, Activity Enhancement and Preliminary Selectivity Control of Nuclear Receptor Ligands Bearing a Phenanthridinone Skeleton” (International Journal of Molecular Sciences, 2018).

What was measured:
[1] = biological target: T1, AR (Homo sapiens, UniProt P10275); experiment: AR reporter gene assay in HEK293; assay type: cell-based; settings: reporter gene assay, HEK293; agonist dihydrotestosterone 0.3 nM; read-out: AR antagonistic activity (IC50), AR reporter gene
T1 sequence (P10275 1-920): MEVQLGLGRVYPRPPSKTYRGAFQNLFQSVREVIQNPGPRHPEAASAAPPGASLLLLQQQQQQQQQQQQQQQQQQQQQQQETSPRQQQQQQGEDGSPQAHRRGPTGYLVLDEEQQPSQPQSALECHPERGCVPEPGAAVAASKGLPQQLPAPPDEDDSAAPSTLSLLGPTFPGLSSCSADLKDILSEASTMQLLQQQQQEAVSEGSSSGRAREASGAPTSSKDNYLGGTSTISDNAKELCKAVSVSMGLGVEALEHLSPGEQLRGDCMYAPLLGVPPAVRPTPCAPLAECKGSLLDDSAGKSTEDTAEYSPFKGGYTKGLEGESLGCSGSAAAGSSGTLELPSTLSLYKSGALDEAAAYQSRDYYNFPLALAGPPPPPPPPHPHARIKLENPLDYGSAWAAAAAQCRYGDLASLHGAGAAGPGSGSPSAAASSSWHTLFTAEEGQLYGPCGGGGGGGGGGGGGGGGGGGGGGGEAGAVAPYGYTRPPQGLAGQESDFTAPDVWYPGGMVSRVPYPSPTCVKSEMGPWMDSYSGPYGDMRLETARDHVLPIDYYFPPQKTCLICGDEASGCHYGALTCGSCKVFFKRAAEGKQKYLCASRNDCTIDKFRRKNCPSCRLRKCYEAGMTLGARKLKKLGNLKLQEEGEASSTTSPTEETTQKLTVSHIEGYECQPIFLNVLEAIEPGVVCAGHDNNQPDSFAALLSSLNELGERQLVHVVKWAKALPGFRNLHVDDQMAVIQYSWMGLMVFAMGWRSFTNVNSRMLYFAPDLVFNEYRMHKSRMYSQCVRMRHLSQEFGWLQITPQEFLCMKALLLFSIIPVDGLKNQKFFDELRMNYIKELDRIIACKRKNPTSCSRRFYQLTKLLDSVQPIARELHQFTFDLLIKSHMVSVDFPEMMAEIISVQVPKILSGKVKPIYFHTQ

[2] = biological target: T2, GR (Homo sapiens, UniProt P04150); experiment: GR reporter gene assay in HEK293; assay type: cell-based; settings: reporter gene assay, HEK293; agonist dexamethasone 1 nM; read-out: GR antagonistic activity (IC50)
T2 construct: expressed in transfected cells; host or cells: HEK293
T2 sequence (P04150 1-777): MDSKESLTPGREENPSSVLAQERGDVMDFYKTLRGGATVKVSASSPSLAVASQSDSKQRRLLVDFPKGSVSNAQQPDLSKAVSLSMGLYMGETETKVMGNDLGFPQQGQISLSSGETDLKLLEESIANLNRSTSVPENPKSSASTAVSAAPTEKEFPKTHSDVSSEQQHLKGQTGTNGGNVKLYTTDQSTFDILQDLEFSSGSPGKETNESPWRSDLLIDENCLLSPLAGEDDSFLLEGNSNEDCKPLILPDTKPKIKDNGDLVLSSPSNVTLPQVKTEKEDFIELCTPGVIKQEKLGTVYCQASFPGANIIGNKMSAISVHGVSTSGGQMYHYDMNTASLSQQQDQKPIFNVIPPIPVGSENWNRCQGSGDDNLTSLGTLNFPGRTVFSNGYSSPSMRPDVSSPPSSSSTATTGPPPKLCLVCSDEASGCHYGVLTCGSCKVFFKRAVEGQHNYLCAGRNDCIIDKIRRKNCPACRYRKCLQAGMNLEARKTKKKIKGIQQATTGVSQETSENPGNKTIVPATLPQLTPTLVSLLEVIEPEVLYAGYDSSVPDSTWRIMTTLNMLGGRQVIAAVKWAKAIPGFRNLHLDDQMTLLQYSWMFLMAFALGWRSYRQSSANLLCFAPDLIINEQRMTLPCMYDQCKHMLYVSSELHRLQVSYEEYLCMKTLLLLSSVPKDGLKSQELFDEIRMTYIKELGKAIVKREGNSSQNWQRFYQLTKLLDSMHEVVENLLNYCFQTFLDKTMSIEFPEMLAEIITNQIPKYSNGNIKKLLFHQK

[3] = biological target: T3, RORβ (Homo sapiens, UniProt Q92753); settings: reporter gene assay, HEK293; read-out: RORβ inverse agonistic activity (IC50); cited from earlier work
T3 construct: expressed in transfected cells; host or cells: HEK293
T3 sequence (Q92753 1-459 isoform Q92753-1): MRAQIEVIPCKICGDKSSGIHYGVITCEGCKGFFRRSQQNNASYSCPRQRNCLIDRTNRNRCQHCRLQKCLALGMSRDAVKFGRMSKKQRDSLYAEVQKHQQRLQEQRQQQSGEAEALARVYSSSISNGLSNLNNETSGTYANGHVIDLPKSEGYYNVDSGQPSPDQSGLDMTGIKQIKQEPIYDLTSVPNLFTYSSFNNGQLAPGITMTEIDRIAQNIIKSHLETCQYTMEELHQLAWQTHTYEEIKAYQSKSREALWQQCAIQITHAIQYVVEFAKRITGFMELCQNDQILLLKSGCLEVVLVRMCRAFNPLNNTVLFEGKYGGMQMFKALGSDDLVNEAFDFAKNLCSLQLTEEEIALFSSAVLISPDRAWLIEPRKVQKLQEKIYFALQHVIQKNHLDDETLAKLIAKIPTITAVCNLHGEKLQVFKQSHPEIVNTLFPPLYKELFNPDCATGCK

[4] = biological target: T4, RORγ (Homo sapiens, UniProt P51449); settings: reporter gene assay, HEK293; read-out: RORγ inverse agonistic activity (IC50); cited from earlier work
T4 construct: expressed in transfected cells; host or cells: HEK293
T4 sequence (P51449 1-518): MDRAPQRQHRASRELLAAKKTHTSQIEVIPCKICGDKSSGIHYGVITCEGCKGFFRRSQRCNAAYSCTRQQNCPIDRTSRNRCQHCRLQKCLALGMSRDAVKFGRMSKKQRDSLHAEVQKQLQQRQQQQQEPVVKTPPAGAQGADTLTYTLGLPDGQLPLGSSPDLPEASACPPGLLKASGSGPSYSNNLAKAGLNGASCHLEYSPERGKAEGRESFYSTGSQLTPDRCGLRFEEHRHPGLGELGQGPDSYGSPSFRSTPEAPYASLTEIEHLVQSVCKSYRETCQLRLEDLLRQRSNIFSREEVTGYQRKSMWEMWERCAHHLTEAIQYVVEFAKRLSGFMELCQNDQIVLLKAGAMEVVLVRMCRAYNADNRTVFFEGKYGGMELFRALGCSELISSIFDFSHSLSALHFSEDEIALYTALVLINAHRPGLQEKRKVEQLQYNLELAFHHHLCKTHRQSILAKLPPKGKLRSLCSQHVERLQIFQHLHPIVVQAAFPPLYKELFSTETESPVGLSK

IC50 [1] [µM] | IC50 [2] [µM] | SMILES | IC50 [3] [µM] | IC50 [4] [µM]
14 | > 20 | CCc1cc(C(O)(C(F)(F)F)C(F)(F)F)cc2c1[nH]c(=O)c1ccccc12 [Compound 41] | > 20 | > 20
5.4 | 16 | CCCc1cc(C(O)(C(F)(F)F)C(F)(F)F)cc2c1[nH]c(=O)c1ccccc12 [Compound 42] | 11 | 9.9
